Test results from patent US11439606B2 (priority 2018, dated 2022).

Columns and labels:
Assay type in all cases: in vivo, rat
[1] = test system: type I diabetic rats; test: Liver function tests (bilirubin, aspartate aminotransferase, gamma glutamyltransferase, alkaline phosphatase) in type I diabetic rats treated with DMF; conditions: versus untreated control rats, DMF 8 mg/kg daily ip
Description: (§1) Controlled test results were performed by, and under the direction of, the inventors, involving four type I diabetic rats, two of which were female and two were male, for the purpose of measuring the effectiveness of administering treatment in accordance with the present invention.

[2] = test system: type I diabetic rats; test: Cholesterol and triglyceride levels in type I diabetic rats treated with DMF; conditions: versus untreated rats and known levels in non-diabetic rats; DMF 8 mg/kg daily ip
Description: as §1

[3] = test system: type I diabetic rats; test: Glycemia in STZ-induced type I diabetic rats treated with DMF; conditions: DMF 8 mg/kg daily ip
[4] = test system: type I diabetic rats; test: Renal function tests (urea, serum creatinine) in type I diabetic rats treated with DMF; conditions: DMF 8 mg/kg daily ip
Description: as §1

[5] = first rat, STZ-induced diabetes, average glycemia 440 mg % before treatment

## dimethylformamide [DMF]
[1]
  liver function (FIG. 5): either improved or not substantially different
[2]
  cholesterol levels (FIG. 3): somewhat elevated
  triglycerides levels (FIG. 3): significantly lowered
[3]; female and male type I diabetic rats
  glycemia level versus untreated rats (FIG. 1): remaining significantly below female and male rats not receiving treatment
[3]; [5]
  blood glucose level after seven days of treatment: below 100 mg %
  blood glucose level four days after treatment: 94 mg %
[3]; second rat, STZ-induced diabetes, average glycemia 526 mg % before treatment
  blood glucose level after seven days of treatment: below 120 mg %
[4]; versus untreated type I diabetic rats and known levels in non-diabetic rats
  levels of serum creatinine (FIG. 4): not only lower than the untreated, type I diabetic control group, but also lower than known levels of serum creatinine in non-diabetic female and male rats
[4]; versus untreated type I diabetic rats
  levels of urea (FIG. 4): below that of the untreated type I diabetic rats
